This assay has as its target T1, Rex (Staphylococcus aureus, UniProt P60386).
T1 sequence (P60386 1-211): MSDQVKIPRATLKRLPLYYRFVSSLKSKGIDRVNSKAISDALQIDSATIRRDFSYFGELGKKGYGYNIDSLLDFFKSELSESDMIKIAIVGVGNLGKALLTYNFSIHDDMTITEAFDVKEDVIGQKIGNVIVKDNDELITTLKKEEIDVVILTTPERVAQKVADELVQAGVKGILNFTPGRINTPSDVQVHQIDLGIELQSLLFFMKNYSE
Kind of assay: isothermal titration calorimetry. It is filed as binding. (In ITC the heat of successive injections is recorded.)

We go through 2 compounds from publication PMC2883068 (Molecular Microbiology, 2010).

As to `NC(=O)C1=CN([C@@H]2O[C@H](COP(=O)(O)OP(=O)(O)OC[C@H]3O[C@@H](n4cnc5c(N)ncnc54)[C@H](O)[C@@H]3O)[C@@H](O)[C@H]2O)C=CC1` [NADH], the Kd (in general, the free concentration of one partner at which half of the binding sites on the other are occupied at equilibrium, for simple one-to-one binding) came out at 0.095 ± 0.005 µM. The same measure for `NC(=O)c1ccc[n+]([C@@H]2O[C@H](COP(=O)(O)OP(=O)(O)OC[C@H]3O[C@@H](n4cnc5c(N)ncnc54)[C@H](O)[C@@H]3O)[C@@H](O)[C@H]2O)c1` [NAD^+]: 150 ± 20 µM.
